Broadly, the GI50 is the concentration giving 50% growth inhibition.

Data set [1] relates to MCF-7 (breast cancer cell). Put plainly: MTT antiproliferative assay (cell growth %, GI50), MCF-7. Type of data set: cell-based. Details: Cell growth (%) MCF-7: unit of the concentration uncertain. The conditions noted are these: for SI MCF-7: GI50 MRC-5 / GI50 MCF-7; for activity at 4000 µg/mL / activity at 20000 µg/mL / GI50: Homo sapiens; for activity at 4000 µg/mL: 4 mg/ml; for activity at 4000 µg/mL / activity at 20000 µg/mL / Cell growth (%) MCF-7: 48 hours, MTT; for activity at 20000 µg/mL: 20 mg/ml. The procedure:
(§1) Antiproliferative activities of the compounds of this invention were evaluated substantially according to the method as described in Tseng, C. […] The cells were treated with the test compounds, i.e., the compounds of this invention (in dimethylsulfoxide (DMSO)), or DMSO for 48 hours.
(§2) Before and after the treatment with the test compounds or DMSO, 3-(4,5-dimethylthiazol-2-yl)-2,5-diphenyltetrazolium bromide (MTT, 2 mg/mL, 100 μL) was added to each of the cultures, followed by cultivation for 2 hours. The resultant formazan was dissolved by the addition of DMSO. Absorbance at 570 nm (OD570) was measured using a microtiter plate reader (Dynex MRX-II).
(§3) Determination of GI50 was conducted thrice for each test compound. GI50 is expressed as mean±SD.
A general note: Tetrazolium assays rely on reduction of a dye to a coloured formazan, in cell work by metabolically active cells.

Data set [2] deals with NCI-H460 (non-small cell lung carcinoma cell). Briefly: MTT antiproliferative assay (cell growth %, GI50), NCI-H460. Type of data set: cell-based. Details: Cell growth (%) NCI-H460: unit of the concentration uncertain. The settings on record: for SI NCI-H460: GI50 MRC-5 / GI50 NCI-H460; for activity at 4000 µg/mL / activity at 20000 µg/mL / GI50: Homo sapiens; for activity at 4000 µg/mL: 4 mg/ml; for activity at 4000 µg/mL / activity at 20000 µg/mL / Cell growth (%) NCI-H460: 48 hours, MTT; for activity at 20000 µg/mL: 20 mg/ml. The method, then:
as §1, §2, §3

Data set [3] is described as follows: Determination of solubility in water. In kind it is physicochemical. The conditions noted are these: for Solubility in water: 25±0.1° C., stirred overnight, UV-VIS. The method, then:
Determination of solubility in water was conducted substantially according to the method as described in Vougogiannopoulou, K. et al. (2008), J. Med. Chem., 51:6421-6431. An excess amount of the respective test compound was added into water, followed by sonication for 5 minutes. The resultant mixture was stirred at ambient temperature (25±0.1° C.) overnight. Centrifugation at 4000 rpm and 25° C. was conducted for 5 minutes. Absorbance of the sample of the respective test compound was measured at 315-420 nm using a UV-VIS spectrophotometer (JASCO UV-Visible V570). For each test compound, a standard curve was generated by plotting concentrations of standard solutions and the corresponding absorbances. The absorbance of the sample of each test compound was then converted to solubility in water (μg/mL) using the corresponding standard curve.

Data set [4] has as its system SF-268 (central nervous system carcinoma cell). Put plainly: MTT antiproliferative assay (cell growth %, GI50), SF-268. Type of data set: cell-based. Details: Cell growth (%) SF-268: unit of the concentration uncertain. The conditions noted are these: for SI SF-268: GI50 MRC-5 / GI50 SF-268; for GI50: Homo sapiens; for Cell growth (%) SF-268: 48 hours, MTT. The method, then:
as §1, §2, §3

Data set [5] relates to MRC-5 (human lung fibroblast cell). Briefly: GI50 determination on normal cell line MRC-5. In kind it is cell-based. The method, then:
as §1, §2, §3

Where [6] appears, read: MCF7, mean±SD, read-out: GI50 MCF-7.
The mark [7] stands for this setting: NCI-H460, mean±SD, read-out: GI50 NCI-H460.
Setting [8] is: SF-268, mean±SD, read-out: GI50 SF-268.
[9] abbreviates: MRC5, normal cell line, mean±SD, read-out: GI50 MRC-5.

Molecules are shown by their SMILES. ≈ marks a conversion by molar mass, not a printed value. Like-named read-outs stand apart in the source and are kept apart here.

Regarding `C/C(=N\OCCCN)c1ccc(Nc2c3ccccc3nc3occc23)cc1` [Compound 13c, (E)-1-(4-(furo[2,3-b]quinolin-4-ylamino)phenyl)ethanone O-3-aminopropyl oxime], the “SI MCF-7” value in data set [1] is recorded as 3.73. In addition, the activity at 4000 µg/mL in data set [1] (MCF7) is 52%; in data set [2] (NCI-H460), 22%. The activity at 20000 µg/mL in data set [1] (MCF7) was -3%; in data set [2] (NCI-H460), -2%. For the same compound, the GI50 in data set [1] (setting [6]) is 11.52 ± 0.02 µM; in data set [2] (setting [7]), 7.08 ± 0.67 µM; in data set [4] (setting [8]), 7.53 ± 0.41 µM; in data set [5] (setting [9]), 43 ± 0.86 µM. Further, the “SI NCI-H460” value in data set [2] came to 6.07. For the same compound, the Solubility in water in data set [3] was found to be 58 µg/mL (≈ 155 µM). The “SI SF-268” value in data set [4] stood at 5.71.
As for `C/C(=N\OCCCN)c1ccc(Nc2c3ccccc3nc3occ(Cl)c23)cc1` [Compound 14c, (E)-1-(4-(3-Chlorofuro[2,3-b]quinolin-4-ylamino)phenyl)ethanone O-3-aminopropyl oxime], in data set [1], the “SI MCF-7” value amounted to 4.98. In addition, the activity at 4000 µg/mL in data set [1] (MCF7) is 46%; in data set [2] (NCI-H460), 28%. In addition, the activity at 20000 µg/mL in data set [1] (MCF7) and in data set [2] (NCI-H460) was 0% throughout. Besides, the GI50 in data set [1] (setting [6]) stood at 9.46 ± 0.23 µM; in data set [2] (setting [7]), 16.2 ± 0.36 µM; in data set [4] (setting [8]) it was 32.5 ± 1.25 µM; in data set [5] (setting [9]), 47.1 ± 2.27 µM. Further, the “SI NCI-H460” value in data set [2] was 2.90. This compound also registered a Solubility in water in data set [3] of 36 µg/mL (≈ 88 µM). Besides, the “SI SF-268” value in data set [4] is recorded as 1.46.
Turning to `COc1ccc2c(Nc3ccc(/C(C)=N/OCCN)cc3)c3ccoc3nc2c1` [Compound 15a, (E)-1-(4-(7-Methoxyfuro[2,3-b]quinolin-4-ylamino)phenyl)ethanone O-2-aminoethyl oxime], the “SI MCF-7” value in data set [1] came out at 1.24. Moreover, the activity at 4000 µg/mL in data set [1] (MCF7) came out at 71%; in data set [2] (NCI-H460) it was 14%. Besides, the activity at 20000 µg/mL in data set [1] (MCF7) is 8%; in data set [2] (NCI-H460), 11%. Further, the GI50 in data set [1] (setting [6]) stood at 36.23 ± 0.05 µM; in data set [2] (setting [7]), 3.96 ± 0.14 µM; in data set [4] (setting [8]), 8.15 ± 0.44 µM; in data set [5] (setting [9]), 45.11 ± 0.31 µM. For the same compound, in data set [2], the “SI NCI-H460” value was determined as 11.39. The compound also returned a Solubility in water in data set [3] of 16 µg/mL (≈ 41 µM). For the same compound, the “SI SF-268” value in data set [4] was 5.53.
Regarding `COc1ccc2c(Nc3ccc(/C(C)=N/OCCN)cc3)c3c(Cl)coc3nc2c1` [Compound 16a, (E)-1-(4-(3-Chloro-7-methoxyfuro[2,3-b]quinolin-4-ylamino)phenyl)ethanone O-2-aminoethyl oxime], the “SI MCF-7” value in data set [1] came to 1.28. The activity at 4000 µg/mL in data set [1] (MCF7) was found to be 66%; in data set [2] (NCI-H460), 13%. Besides, the activity at 20000 µg/mL in data set [1] (MCF7) was -1%; in data set [2] (NCI-H460), 3%. For the same compound, the 50% growth inhibitory concentration (GI50) in data set [1] (setting [6]) worked out at 36.93 ± 0.31 µM; in data set [2] (setting [7]) it was 3.86 ± 0.13 µM; in data set [4] (setting [8]) it was 7.48 ± 0.366 µM; in data set [5] (setting [9]) it was 47.46 ± 0.38 µM. In addition, in data set [2], the “SI NCI-H460” value is recorded as 12.30. Moreover, the Solubility in water in data set [3] came out at 17 µg/mL (≈ 40 µM). In data set [4], the “SI SF-268” value worked out at 6.34.
With `COc1ccc2c(Nc3ccc(/C(C)=N/OCCN(C)C)cc3)c3c(Cl)coc3nc2c1` [Compound 16b, (E)-1-(4-(3-Chloro-7-methoxyfuro[2,3-b]quinolin-4-ylamino)phenyl)ethanone O-2-(dimethylamino) ethyl oxime], the “Cell growth (%) MCF-7” value in data set [1] (4 (unit uncertain)) is reported as 51%; in data set [1] (20 (unit uncertain)) it was −2%. Moreover, the “Cell growth (%) NCI-H460” value in data set [2] (4 (unit uncertain)) is reported as 74%; in data set [2] (20 (unit uncertain)), −1%. Further, the “Cell growth (%) SF-268” value in data set [4] (4 (unit uncertain)) is reported as 102%; in data set [4] (20 (unit uncertain)), −1%.
With `COc1ccc2c(Nc3ccc(/C(C)=N/OCCCN(C)C)cc3)c3c(Cl)coc3nc2c1` [Compound 16d, (E)-1-(4-(3-Chloro-7-methoxyfuro[2,3-b]quinolin-4-ylamino)phenyl)ethanone O-3-(dimethylamino) propyl oxime], the “Cell growth (%) MCF-7” value amounted to 66% in data set [1] (4 (unit uncertain)) and 1% in data set [1] (20 (unit uncertain)). Further, the figures for the “Cell growth (%) NCI-H460” value in data set [2] (4 (unit uncertain)) and in data set [2] (20 (unit uncertain)) were 66% and 4%, respectively. The “Cell growth (%) SF-268” value in data set [4] (4 (unit uncertain)) is 103%; in data set [4] (20 (unit uncertain)), 1%.
As for `COc1ccc2c(Nc3ccc(/C(C)=N/OCCN4CCOCC4)cc3)c3c(Cl)coc3nc2c1` [Compound 16g, (E)-1-(4-(3-Chloro-7-methoxyfuro[2,3-b]quinolin-4-ylamino)phenyl)ethanone O-2-morpholinoethyl oxime], in data set [1] (MCF7), the activity at 4000 µg/mL was 85% and the activity at 20000 µg/mL came out at 37%. Further, in data set [2] (NCI-H460), the activity at 4000 µg/mL came out at 97% and the activity at 20000 µg/mL was found to be 68%.
For `COc1ccc2c(Nc3ccc(/C(C)=N/OCCCCN4CCOCC4)cc3)c3c(Cl)coc3nc2c1` [Compound 16h, (E)-1-(4-(3-Chloro-7-methoxyfuro[2,3-b]quinolin-4-ylamino)phenyl)ethanone O-4-morpholinobutyl oxime] the same measures were 96%, 5%, 87% and 20%.
Regarding `C/C(=N\OCCN)c1ccc(Nc2c3ccccc3nc3occc23)cc1.Cl` [Hydrochloride salt of 13a, hydrochloride salt of (E)-1-(4-(furo[2,3-b]quinolin-4-ylamino)phenyl)ethanone O-2-aminoethyl oxime], the Solubility in water in data set [3] was 1049 µg/mL. The “Solubility in water relative to compound 13a” value in data set [3] (fold versus compound 13a) was “about 17 times”.
As to `CC[C@@]1(O)C(=O)OCc2c1cc1n(c2=O)Cc2cc3ccccc3nc2-1` [camptothecin, reference compound], the “SI MCF-7” value in data set [1] was determined as 0.08. The GI50 amounted to 11.1 ± 0.61 µM in data set [1] (setting [6]), 0.03 ± 0.003 µM in data set [2] (setting [7]), 0.19 ± 0.006 µM in data set [4] (setting [8]) and 0.89 ± 0.9 µM in data set [5] (setting [9]). The “SI NCI-H460” value in data set [2] was 29.67. The “SI SF-268” value in data set [4] is 4.68.
On to `COc1cccc2c1C(=O)c1c(O)c3c(c(O)c1C2=O)C[C@@](O)(C(C)=O)C[C@@H]3O[C@H]1C[C@H](N)[C@H](O)[C@H](C)O1` [daunorubicin, reference compound], for which the “SI MCF-7” value in data set [1] was 0.17. Moreover, the GI50 stood at 5.03 ± 0.05 µM in data set [1] (MCF7, read-out: GI50 MCF-7); 0.38 ± 0.04 µM in data set [2] (NCI-H460, read-out: GI50 NCI-H460); 0.6 ± 0.02 µM in data set [4] (SF-268, read-out: GI50 SF-268); 0.88 ± 0.11 µM in data set [5] (MRC5, read-out: GI50 MRC-5). Besides, the “SI NCI-H460” value in data set [2] is on record as 2.32. Further, in data set [4], the “SI SF-268” value was found to be 1.47.

For the origin of these results see patent US8952033B2, “4-anilinofuro[2,3-b]quinoline derivatives, their preparation processes, and pharmaceutical compositions comprising the same” (Kaohsiung Medical University, priority 2011, dated 2015).
